In US7749546B2, “Composition for effectively suppressing the growth of prostate cancer cell, suppressing the prostatic hyperplasia and its preparation method” (Golden Biotechnology Corp., priority 2004, dated 2010):

Test system: human prostate cancer cell lines—LNCaP cells
Experiment: In vitro mode adjunctive treatment activity assay with Taxol (MTT cell survival)
Type: cell-based
Details: 2 nM Taxol alone
Protocol: Utilize in vitro filter mode for human prostate cancer cell lines—LNCaP cells. Where human prostate cancer cell lines—LNCaP cells is being cultured in the culture medium which is supplemented by fetalbovine serum for 24 hours, and process cells by Taxol for 72 hours, and then change the culture medium so as to culture it in a new culture medium by adding assay sample for 72 hours, afterwards evaluate the cell survival rate by MIT colorimetric analysis method.
※ The assay analysis of the compositions in accordance with the present invention in effect for suppressing the growth of human prostate cancer cells, wherein it is necessary to compute the cell survival rate for cells in each well of 96-well microplate, afterwards evaluate the cancer cells survival rate by MIT colorimetric analysis method.
※ MTT colorimetric analysis method: MTT is a kind of tertrazolium salt, with a full name of 3-[4,5-Dimenthylthialzol-2-yl]2, 5-diphenyltetrazoliumbromide, which is the yellow dye, capable to be absorbed by live cells and also be reduced to blue color formazan by succinate-tetrazoliumreductase in mitochondrion, which is commonly used for filtering the affection for matters to the growth and proliferation of cells.

CC(=O)O[C@H]1C(=O)[C@@]2(C)[C@H]([C@H](OC(=O)c3ccccc3)[C@]3(O)C[C@H](OC(=O)[C@H](O)[C@@H](NC(=O)c4ccccc4)c4ccccc4)C(C)=C1C3(C)C)[C@]1(OC(C)=O)CO[C@@H]1C[C@@H]2O [Taxol]
cell survival rate for human prostate cancer cells: 56.4%
